Data on 6 molecules can be found in patent publication US20250136578A1 (Kolm Therapeutics Inc., priority 2023, published 2025).

In test [1] the target is AR / CBP ternary complex (Homo sapiens, UniProt P10275+Q92793). The test is described as follows: Ternary complex formation assay (sandwich ELISA, AR capture, CBP antibody detection) in VCaP cell lysates. Type of test: cell-based. Put shortly:
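VCaP cells in 5% charcoal-stripped FBS were cultured ≥3 days and then given bifunctional compound for 1.5 h. Lysates went onto AR-antibody-coated plates. Bound CBP (or p300) was detected with a rabbit antibody plus HRP anti-rabbit, using QuantaRed chemifluorescence (ex 570/em 585) read immediately, at 5 min and at 15 min.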
Background: ELISA stands for enzyme-linked immunosorbent assay.

Test [2] deals with VCaP cells. The test is described as follows: VCaP growth inhibition assay (CTG). The conditions noted are these: Homo sapiens, 216 h, 30 pM R1881, 9 days. It is filed as cell-based. Put shortly: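 VCaP cells in phenol red-free DMEM with 5% charcoal-stripped serum were stimulated with 30 pM R1881 (final) and treated with compound from 100 nM to 10 fM final (1:5 dilutions) for 9 days at 37 °C. Viability was read by CellTiter-Glo luminescence, and IC50 came from 4-parameter logistic fits.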

Setting [3] is: treated 1.5 hours, rabbit CBP or p300 antibody detection, average, read-out: Average Ternary Complex.

Structures are written as SMILES. Like-named read-outs stand apart in the source and are kept apart here. Where only a bound is given, the exact number is not on record here.

Sequence of AR / CBP ternary complex (P10275 whole entry): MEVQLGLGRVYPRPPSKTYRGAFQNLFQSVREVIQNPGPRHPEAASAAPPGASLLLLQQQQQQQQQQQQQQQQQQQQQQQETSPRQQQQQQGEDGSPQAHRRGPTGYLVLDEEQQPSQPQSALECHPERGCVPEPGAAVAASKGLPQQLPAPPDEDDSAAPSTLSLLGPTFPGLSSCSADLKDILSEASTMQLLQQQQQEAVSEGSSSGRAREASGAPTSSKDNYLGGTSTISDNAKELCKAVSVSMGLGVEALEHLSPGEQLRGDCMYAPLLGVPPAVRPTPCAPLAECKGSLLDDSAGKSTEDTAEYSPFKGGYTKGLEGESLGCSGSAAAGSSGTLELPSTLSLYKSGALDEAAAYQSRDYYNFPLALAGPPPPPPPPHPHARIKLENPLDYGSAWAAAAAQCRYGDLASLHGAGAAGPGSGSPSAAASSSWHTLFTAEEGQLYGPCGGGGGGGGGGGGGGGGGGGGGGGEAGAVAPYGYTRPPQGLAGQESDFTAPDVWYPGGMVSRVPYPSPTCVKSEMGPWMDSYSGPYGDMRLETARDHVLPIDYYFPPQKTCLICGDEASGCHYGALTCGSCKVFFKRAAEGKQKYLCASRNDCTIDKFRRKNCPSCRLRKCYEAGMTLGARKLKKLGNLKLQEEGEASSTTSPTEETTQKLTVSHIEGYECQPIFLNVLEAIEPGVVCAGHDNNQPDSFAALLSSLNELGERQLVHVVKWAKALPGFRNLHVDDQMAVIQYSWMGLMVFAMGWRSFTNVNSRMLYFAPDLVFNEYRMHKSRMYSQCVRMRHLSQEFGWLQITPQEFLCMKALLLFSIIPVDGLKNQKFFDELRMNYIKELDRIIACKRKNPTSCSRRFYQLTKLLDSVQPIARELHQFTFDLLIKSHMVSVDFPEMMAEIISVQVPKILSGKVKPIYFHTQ
Sequence of AR / CBP ternary complex (Q92793 2-2442): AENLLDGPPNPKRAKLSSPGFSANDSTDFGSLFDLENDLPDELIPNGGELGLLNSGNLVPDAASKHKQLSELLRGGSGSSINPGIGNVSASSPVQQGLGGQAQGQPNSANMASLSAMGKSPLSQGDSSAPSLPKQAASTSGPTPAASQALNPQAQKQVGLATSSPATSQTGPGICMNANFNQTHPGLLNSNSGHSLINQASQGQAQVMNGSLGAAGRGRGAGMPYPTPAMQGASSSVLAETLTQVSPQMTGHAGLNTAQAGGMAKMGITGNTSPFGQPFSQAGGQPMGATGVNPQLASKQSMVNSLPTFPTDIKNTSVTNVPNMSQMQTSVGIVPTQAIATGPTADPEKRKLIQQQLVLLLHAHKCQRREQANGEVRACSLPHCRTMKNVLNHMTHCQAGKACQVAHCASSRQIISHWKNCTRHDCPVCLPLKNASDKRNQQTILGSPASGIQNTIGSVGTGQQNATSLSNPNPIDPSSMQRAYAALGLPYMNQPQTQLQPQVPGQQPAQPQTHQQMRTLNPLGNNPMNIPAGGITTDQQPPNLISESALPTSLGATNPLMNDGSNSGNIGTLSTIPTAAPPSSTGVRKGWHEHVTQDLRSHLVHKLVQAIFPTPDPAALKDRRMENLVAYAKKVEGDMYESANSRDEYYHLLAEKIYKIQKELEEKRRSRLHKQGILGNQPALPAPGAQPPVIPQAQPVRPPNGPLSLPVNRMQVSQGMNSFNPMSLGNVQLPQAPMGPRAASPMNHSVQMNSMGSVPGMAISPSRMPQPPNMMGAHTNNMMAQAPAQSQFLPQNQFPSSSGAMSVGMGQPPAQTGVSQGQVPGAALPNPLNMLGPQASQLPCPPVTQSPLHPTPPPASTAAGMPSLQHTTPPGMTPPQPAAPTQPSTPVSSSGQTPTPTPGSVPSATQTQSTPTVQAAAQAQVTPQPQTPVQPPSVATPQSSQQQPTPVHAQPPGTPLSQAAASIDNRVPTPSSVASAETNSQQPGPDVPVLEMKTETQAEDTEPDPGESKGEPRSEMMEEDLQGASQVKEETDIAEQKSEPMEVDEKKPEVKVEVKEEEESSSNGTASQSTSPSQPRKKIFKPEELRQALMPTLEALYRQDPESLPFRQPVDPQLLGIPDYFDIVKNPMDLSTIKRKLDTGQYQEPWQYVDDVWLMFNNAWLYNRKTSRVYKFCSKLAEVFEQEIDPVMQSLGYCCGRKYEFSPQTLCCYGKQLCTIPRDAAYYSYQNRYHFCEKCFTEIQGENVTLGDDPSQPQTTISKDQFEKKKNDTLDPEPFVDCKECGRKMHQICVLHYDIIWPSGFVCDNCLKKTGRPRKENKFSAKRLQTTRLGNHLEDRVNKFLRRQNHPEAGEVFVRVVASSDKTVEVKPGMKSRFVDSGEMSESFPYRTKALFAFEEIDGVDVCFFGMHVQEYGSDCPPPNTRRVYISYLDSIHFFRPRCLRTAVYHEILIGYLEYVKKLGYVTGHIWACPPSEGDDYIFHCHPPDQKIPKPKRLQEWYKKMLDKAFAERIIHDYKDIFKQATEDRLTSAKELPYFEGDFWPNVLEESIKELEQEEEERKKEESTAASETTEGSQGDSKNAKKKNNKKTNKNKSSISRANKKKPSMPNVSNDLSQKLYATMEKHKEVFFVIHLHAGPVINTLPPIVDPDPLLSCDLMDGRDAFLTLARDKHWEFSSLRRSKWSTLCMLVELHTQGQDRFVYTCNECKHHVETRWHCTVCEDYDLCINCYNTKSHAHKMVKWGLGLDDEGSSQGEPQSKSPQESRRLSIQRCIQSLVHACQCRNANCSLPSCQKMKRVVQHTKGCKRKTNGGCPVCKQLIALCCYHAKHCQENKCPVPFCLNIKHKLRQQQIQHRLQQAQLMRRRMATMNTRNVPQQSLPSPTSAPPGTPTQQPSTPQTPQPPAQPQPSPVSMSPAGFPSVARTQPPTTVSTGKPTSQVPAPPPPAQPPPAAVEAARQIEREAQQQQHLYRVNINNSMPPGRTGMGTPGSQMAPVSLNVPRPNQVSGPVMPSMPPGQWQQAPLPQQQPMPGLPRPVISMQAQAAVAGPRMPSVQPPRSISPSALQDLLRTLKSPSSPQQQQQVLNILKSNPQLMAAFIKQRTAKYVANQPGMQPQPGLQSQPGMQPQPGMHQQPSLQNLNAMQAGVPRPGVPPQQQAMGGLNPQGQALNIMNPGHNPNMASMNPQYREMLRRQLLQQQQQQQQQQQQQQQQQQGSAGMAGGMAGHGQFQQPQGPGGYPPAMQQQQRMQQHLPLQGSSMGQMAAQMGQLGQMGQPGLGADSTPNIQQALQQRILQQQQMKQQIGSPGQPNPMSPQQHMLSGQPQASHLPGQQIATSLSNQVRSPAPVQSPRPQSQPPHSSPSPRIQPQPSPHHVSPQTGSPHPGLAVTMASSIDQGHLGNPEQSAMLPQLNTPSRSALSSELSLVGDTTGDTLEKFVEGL

On to `CC(=O)N1CCc2c(c(N3CCCc4cc(-c5cnn(C)c5)c(C(F)F)cc43)nn2C2CCN(C3CC4(C3)CN(c3ccc(C(=O)N[C@H]5CC[C@H](Oc6ccc(C#N)c(Cl)c6)CC5)nn3)C4)CC2)C1` [Compound 229, 6-[6-[4-[5-acetyl-3-[7-(difluoromethyl)-6-(1-methylpyrazol-4-yl)-3,4-dihydro-2H-quinolin-1-yl]-6,7-dihydro-4H-pyrazolo[4,3-c]pyridin-1-yl]-1-piperidyl]-2-azaspiro[3.3]heptan-2-yl]-N-[4-(3-chloro-4-cyano-phenoxy)cyclohexyl]pyridazine-3-carboxamide], for which the EC50 in test [1] (setting [3]) was below 1 nM. Besides, in test [2], the IC50 was at most 0.1 nM.

As to `CC(=O)N1CCc2c(c(N3CCCc4cc(-c5cscn5)c(C(F)F)cc43)nn2C2CCN(CC3CCN(c4ccc(C(=O)N[C@H]5CC[C@H](Oc6ccc(C#N)c(Cl)c6)CC5)nn4)CC3)CC2)C1` [Compound 253, 6-[4-[[4-[5-acetyl-3-[7-(difluoromethyl)-6-thiazol-4-yl-3,4-dihydro-2H-quinolin-1-yl]-6,7-dihydro-4H-pyrazolo[4,3-c]pyridin-1-yl]-1-piperidyl]methyl]-1-piperidyl]-N-[4-(3-chloro-4-cyano-phenoxy)cyclohexyl] pyridazine-3-carboxamide], the EC50 in test [1] (setting [3]) was below 1 nM. In addition, the IC50 in test [2] was at most 0.1 nM.

Consider `CC(=O)N1CCc2c(c(-c3cccc4cc(-c5cnn(C)c5)ncc34)nn2C2CCN(C(=O)C3CCN(c4ccc(C(=O)N[C@H]5CC[C@H](Oc6ccc(C#N)c(Cl)c6)CC5)cc4)CC3)CC2)C1` [Compound 164, 4-[4-[4-[5-acetyl-3-[3-(1-methylpyrazol-4-yl)-8-isoquinolyl]-6,7-dihydro-4H-pyrazolo[4,3-c]pyridin-1-yl]piperidine-1-carbonyl]-1-piperidyl]-N-[4-(3-chloro-4-cyano-phenoxy)cyclohexyl]benzamide], for which the EC50 in test [1] (setting [3]) was below 1 nM. The molecule further yielded an IC50 in test [2] of 0.1 to 1 nM.

For the molecule `CC(=O)N1CCc2c(c(N3CCCc4cc(-c5cnn(C)c5)c(C(F)F)cc43)nn2[C@H]2[C@@H]3C[C@H]2CN(CC2CCN(c4ccc(C(=O)N[C@H]5CC[C@H](Oc6ccc(C#N)c(Cl)c6)CC5)nn4)CC2)C3)C1` [Compound 150, N-[4-(3-chloro-4-cyano-phenoxy)cyclohexyl]-6-[4-[[rac-(1R,5S)-6-[5-acetyl-3-[7-(difluoromethyl)-6-(1-methylpyrazol-4-yl)-3,4-dihydro-2H-quinolin-1-yl]-6,7-dihydro-4H-pyrazolo[4,3-c]pyridin-1-yl]-3-azabicyclo[3.1.1]heptan-3-yl]methyl]-1-piperidyl]pyridazine-3-carboxamide], in test [1] (read-out: Average Ternary Complex, treated 1.5 hours, rabbit CBP or p300 antibody detection), the EC50 was in the range of 1 to 10 nM. This molecule also returned an IC50 in test [2] of 0.1 to 1 nM.

Regarding `CC(=O)N1CCc2c(c(N3CCCc4cc(-c5cnn(C)c5)c(C(F)F)cc43)nn2[C@H]2CC[C@]3(CCN(C4CN(c5ccc(C(=O)N[C@H]6CC[C@H](Oc7ccc(C#N)c(Cl)c7)CC6)nn5)C4)C3)CC2)C1` [Compound 262, 6-[3-[8-[5-acetyl-3-[7-(difluoromethyl)-6-(1-methylpyrazol-4-yl)-3,4-dihydro-2H-quinolin-1-yl]-6,7-dihydro-4H-pyrazolo[4,3-c]pyridin-1-yl]-2-azaspiro[4.5]decan-2-yl]azetidin-1-yl]-N-[4-(3-chloro-4-cyano-phenoxy)cyclohexyl]pyridazine-3-carboxamide], the EC50 in test [1] (setting [3]) was below 1 nM. For the same molecule, the IC50 in test [2] was 0.1 to 1 nM.

`CC(=O)N1CCc2c(c(N3CCCc4cc(-c5ccc(N6CC(N7CCN(c8ccc(C(=O)N[C@H]9CC[C@H](Oc%10ccc(C#N)c(Cl)c%10)CC9)nn8)CC7)C6)nc5)c(C(F)F)cc43)nn2C2CCOCC2)C1` [Compound 216]: in test [1] (setting [3]), the EC50 was below 1 nM. In test [2], this molecule returned an IC50 of at most 0.1 nM.

One may read the IC50 as the concentration needed to halve the response being measured. Read a high IC50 as weaker potency.
